{"source": "patent US20090203663A1", "about": "“CHEMICAL COMPOUNDS” (AstraZeneca AB, priority 2006, published 2009)", "key": {"[1]": {"biological_target": "T1, human α5β1 (Homo sapiens, UniProt P05556+P08648)", "T1 construct": "human α5β1 purified from placenta; purchased Chemicon CC1055-K; host or cells: human placenta (tissue-purified)", "T1 sequence (P08648 42-894 limits assumed)": "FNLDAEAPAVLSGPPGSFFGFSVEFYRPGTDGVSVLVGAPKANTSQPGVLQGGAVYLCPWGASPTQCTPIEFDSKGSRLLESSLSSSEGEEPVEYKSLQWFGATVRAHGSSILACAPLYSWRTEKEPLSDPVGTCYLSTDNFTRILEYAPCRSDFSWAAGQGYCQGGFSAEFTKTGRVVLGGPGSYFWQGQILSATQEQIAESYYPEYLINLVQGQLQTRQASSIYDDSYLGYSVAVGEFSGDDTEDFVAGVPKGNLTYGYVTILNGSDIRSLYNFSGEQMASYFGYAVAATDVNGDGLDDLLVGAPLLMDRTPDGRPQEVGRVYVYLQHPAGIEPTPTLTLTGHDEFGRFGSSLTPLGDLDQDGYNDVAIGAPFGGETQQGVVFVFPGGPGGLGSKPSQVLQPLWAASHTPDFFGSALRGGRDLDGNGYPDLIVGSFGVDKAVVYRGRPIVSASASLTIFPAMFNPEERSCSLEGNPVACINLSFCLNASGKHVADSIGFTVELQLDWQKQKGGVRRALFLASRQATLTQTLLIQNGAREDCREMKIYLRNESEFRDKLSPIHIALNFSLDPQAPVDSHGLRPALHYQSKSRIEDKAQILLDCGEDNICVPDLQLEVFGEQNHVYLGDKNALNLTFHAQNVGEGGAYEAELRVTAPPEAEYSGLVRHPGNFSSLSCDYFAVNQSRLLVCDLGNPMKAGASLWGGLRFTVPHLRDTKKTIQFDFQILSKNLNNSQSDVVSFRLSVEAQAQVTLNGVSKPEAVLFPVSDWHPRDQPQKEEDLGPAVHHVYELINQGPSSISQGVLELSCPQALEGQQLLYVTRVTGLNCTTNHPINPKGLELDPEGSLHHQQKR", "T1 sequence (P08648 895-1049 partner limits assumed)": "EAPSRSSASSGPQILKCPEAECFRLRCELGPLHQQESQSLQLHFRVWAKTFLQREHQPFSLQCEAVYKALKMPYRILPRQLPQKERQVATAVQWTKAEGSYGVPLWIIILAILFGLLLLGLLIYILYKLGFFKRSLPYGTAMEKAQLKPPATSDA", "T1 sequence (P05556 21-798)": "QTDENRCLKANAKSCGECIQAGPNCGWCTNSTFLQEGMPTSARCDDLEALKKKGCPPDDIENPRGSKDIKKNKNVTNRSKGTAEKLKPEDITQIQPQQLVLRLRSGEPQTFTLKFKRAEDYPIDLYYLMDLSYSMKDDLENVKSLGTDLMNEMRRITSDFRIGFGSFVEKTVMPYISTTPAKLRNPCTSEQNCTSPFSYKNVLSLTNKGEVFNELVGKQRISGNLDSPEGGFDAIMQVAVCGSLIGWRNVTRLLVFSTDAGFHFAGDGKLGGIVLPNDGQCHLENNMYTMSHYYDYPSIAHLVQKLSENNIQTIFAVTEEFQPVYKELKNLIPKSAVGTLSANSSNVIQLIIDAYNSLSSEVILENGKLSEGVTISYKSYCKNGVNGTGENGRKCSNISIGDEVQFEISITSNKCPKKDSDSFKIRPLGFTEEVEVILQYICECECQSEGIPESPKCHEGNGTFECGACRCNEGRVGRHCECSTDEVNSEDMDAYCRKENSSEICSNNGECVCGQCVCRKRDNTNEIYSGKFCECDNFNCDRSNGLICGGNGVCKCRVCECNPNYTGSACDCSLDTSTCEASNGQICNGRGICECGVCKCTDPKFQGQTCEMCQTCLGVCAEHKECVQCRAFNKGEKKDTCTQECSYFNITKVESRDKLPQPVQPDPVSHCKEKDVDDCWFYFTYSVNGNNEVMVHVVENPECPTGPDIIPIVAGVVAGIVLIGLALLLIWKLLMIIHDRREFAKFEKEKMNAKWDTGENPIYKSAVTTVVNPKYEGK", "assay": "In vitro binding assay: inhibition of α5β1 integrin binding to human fibronectin fragment Fn9-10 (Origen electrochemiluminescence)", "conditions": "α5β1 integrin binding to biotinylated Fn9-10; IC50 data; unit inferred", "description": "The assay determined the ability of compounds to inhibit binding of α5β1 integrin to a cognate ligand, a fragment of human fibronectin. The assay used Origen technology (IGEN International) to measure the compound activity. Briefly, α5β1 integrin was coated onto epoxy-paramagnetic beads (Dynal Biotech UK, Bromborough, Wirral, CH62 3QL, UK, Catalogue No 143.02) and biotinylated-fibronectin ligand was coupled to strepatividin labelled BV-Tag-NHS-Ester (BioVeris Corporation, Witney, Oxfordshire, OX28 4GE, UK, Catalogue No JSF396). The ruthenium-labelled BV-Tag emits a electrochemiluminescence signal upon stimulation which is detected by the Origen reader. Thus, interaction of integrin and ligand causes association of bead and tag, and the resulting electrochemiluminescence signal reflects the level of integrin interaction with fibronectin.\nCoated beads were then washed into Assay Buffer (25 mM Hepes, 150 mM NaCl, 1 mM MgCl, 1 mM MnCl, 0.1% Tween, pH7.4) to give a final concentration of 20 µg of α5β1/ml. Immediately prior to the assay, the beads were further diluted ×40 fold in Assay Buffer to give a concentration of 0.5 μg α5β1/ml.\nA DNA fragment encoding the domains 9-10 (amino-acids 1325-1509) of human fibronectin (Swiss-Prot Acession No. P02751) was isolated from cDNA libraries using standard molecular biology and PCR cloning techniques. The cDNA fragment was sub-cloned into a pT73.3 expression vector containing a GST-epitope tag (developed at AstraZeneca; Bagnall et al., Protein Expression and Purification, 2003, 27: 1-11). Following expression in E. coli, the expressed protein, termed Fn9-10, was purified using the GST-tag using standard purification techniques. The recombinant Fn9-10 was subsequently biotinylated using a EZ-link Sulfo-NHS-LC-Biotinylation kit (Perbio Science UK Ltd., Cramlington, Northumberland, NE23 1WA, UK, Catalogue No. 21335) and made to give a final concentration of approximately 1 mg/ml. BV-Tag-NHS-Ester was is labelled with streptavidin by incubation at room temperature following manufacturers instructions and buffer-exchanged into PBS to give a concentration of 0.5 mg/ml. Immediately prior to the assay, biotinylated-Fn9-10 and Streptavidin-labelled BV-Tag were diluted in Assay Buffer to give a final concentrations of 0.6 ug/ml and 1.5 ug/ml respectively. The Fn9-10 and BV-Tag solutions were then mixed together in equal volumes and incubated on ice for at least 30 minutes prior to the assay.\nTest compounds were prepared as 10 mM stock solutions in DMSO (Sigma-Aldrich Company Ltd, Gillingham, Dorset SP8 4XT Catalogue No. 154938) and serially diluted with 4% DMSO to give a range of test concentrations at ×4 required final concentration. Aliquots (20 μl) of each compound dilution were placed into each well of a 384-well round bottomed polypropylene plate (Matrix Technologies, Wilmslow, Cheshire, SK9 3LP, Catalogue No. 4340 384). Each plate also contained control wells: maximum signal was created using wells containing 20 μl of 4% DMSO, and minimum signal corresponding to no binding was created using wells containing 20 μl of 80 mM EDTA (Sigma Catalogue No. E7889).\nFor the assay, 20 μl of a5b1-bead suspension and 40 μl of the Fn9-10/BV-Tag preincubated solution were added to each well containing 20 μl of compound or control solution. Assay plates were then incubated at room temperature for a minimum of 6 hours before being analysed on the Origen plate reader. […]"}, "[2]": {"biological_target": "T2, a5β1 integrin mediated adhesion of K562 cells (Homo sapiens, UniProt P05556+P08648)", "T2 construct": "a5β1 integrin mediated adhesion of K562 cells; host or cells: K562 human erythroleukaemia cells", "T2 sequence (P08648 42-894 limits assumed)": "as the sequence (P08648 42-894 limits assumed) above", "T2 sequence (P08648 895-1049 partner limits assumed)": "as the sequence (P08648 895-1049 partner limits assumed) above", "T2 sequence (P05556 21-798)": "as the sequence (P05556 21-798) above", "assay": "In vitro cell adhesion assay: adhesion of K562 cells to fibronectin fragment Fn9-10 (crystal violet)", "type": "cell-based", "conditions": "K562 cells on Fn9-10 coated plates, 0.2 mM MnCl, 45 minutes; IC50 data; unit inferred", "description": "The assay determined the ability of compounds to inhibit the a5β1 integrin mediated adhesion of K562 cells to the ligand, a fragment of human fibronectin. The human K562 erythroleukaemia cell line (LGC Promochem, Teddington, Middlesex, UK, Catalogue No. CCL-243) was routinely maintained in RPMI 1640 medium (Sigma-Aldrich Company Ltd, Gillingham, Dorset SP8 4XT, Catalogue No. R0883) containing 10% heat-inactivated foetal calf serum (PAA lab GmbH, Pasching, Austria Catalogue No. PAA-A15-043) and 1% glutamax-1 (Invitrogen Ltd. Paisley, UK Catalogue No. 35050-038) at 37° C. with 5% CO2 at densities between 1×10^5 and 1×10^6 cells/ml.\nA DNA fragment encoding the domains 9-10 (amino-acids 1325-1509) of human fibronectin (Swiss-Prot Acession No. P02751) was isolated from cDNA libraries using standard molecular biology and PCR cloning techniques. The cDNA fragment was sub-cloned into a pT7#3.3 expression vector containing a GST-epitope tag (developed at AstraZeneca; Bagnall et al., Protein Expression and Purification, 2003, 27: 1-11), and the fragment termed Fn9-10. Following expression in E. coli, the expressed protein was purified using the GST-tag using standard purification techniques.\nFor adhesion assay, a 96-well flat bottomed plate (Greiner Bio one ltd., Gloucester GL10 3SX Catalogue No. 655101) was coated overnight at 4° C. with 100 μl of 20 μg/ml Fn9-10 ligand in Dulbecco's PBS (Gibco#14190-94). The plate was then washed twice with 200 μl of PBS and blocked with 100 μl of 3% BSA (SigmaA7888) in PBS for 1 hour at 37° C. The plates were then washed again 3 times with 200 μl of PBS and left empty.\nTest compounds were prepared as 10 mM stock solutions in DMSO (Sigma-Aldrich Company Ltd, Gillingham, Dorset SP8 4XT Catalogue No. 154938) and serially diluted with HBSS (Hanks Buffered Salt solution (Gibco Catalogue No. 14170-088)/2% DMSO to give a range of test concentrations at twice required final concentration. Aliquots (50 μl) of each compound dilution were placed into each well of the Fn9-10 coated plates. Each plate also contained control wells: maximum adhesion signal was created using wells containing 50 μl HBSS/2% DMSO, and minimum signal corresponding to no adhesion was created using wells containing 50 μl HBSS/2% DMSO/20 mM EDTA (Sigma Catalogue No. E7889).\nThe K562 cells were cultured to ˜1×10^6 cells/ml, and each culture suspension pooled. Cells were centrifuged at 1200 rpm for 2 mins, and the pellets washed with HBSS followed by HBSS/50 mM HEPES (Sigma Catalogue No. H0887). Cell pellets were pooled and resuspended in HBSS/0.4 mM manganese chloride/50 mM HEPES (MnCl; Sigma Catalogue No. M1787) to give a final concentration of 4×10^6 cells/ml.\nThe assay was initiated by the addition of 50 μl of cell suspension into each coated well (200,000 cells/well), thus resulting in final desired compound concentration and a final MnCl concentration of 0.2 mM. The plates were incubated for 45 minutes at 37° C. 5% CO2. […]\nAfter fixation, the ethanol was flicked off to waste and 100 μl of 0.1% Crystal violet stain was added to each well, and incubated at ambient temperature for 15 minutes. […] Finally, 100 μl of deionised water was added to each well and the absorbance was determined at 590 nm on a spectrophotometer. The minimum value was subtracted from all values, and the absorbance signal was plotted against compound concentration to generate IC50 data."}}}
{"compound": "CN1CCC(Oc2ccc(C[C@H](NC(=O)c3c(Cl)cccc3Cl)C(=O)O)cc2)CC1", "note": "[Example 20, N-(2,6-Dichlorobenzoyl)-O-(1-methylpiperidin-4-yl)-L-tyrosine]", "values": [{"measurement": "IC50", "setting": "[1]", "result": 0.185, "unit": "µM"}, {"measurement": "IC50", "setting": "[2]", "result": 2.4, "unit": "µM"}]}
{"compound": "Cc1cc(C(=O)N2CC(Oc3ccc(C[C@H](NC(=O)c4c(Cl)cccc4Cl)C(=O)O)cc3)C2)ccc1F", "note": "[Example 48, N-(2,6-dichlorobenzoyl)-O-[1-(4-fluoro-3-methylbenzoyl)azetidin-3-yl]-L-tyrosine]", "values": [{"measurement": "IC50", "setting": "[1]", "result": 0.466, "unit": "µM"}, {"measurement": "IC50", "setting": "[2]", "result": 4, "unit": "µM"}]}
{"compound": "O=C(N[C@@H](Cc1ccc(O[C@H]2CCCN(Cc3cc(F)ccc3F)C2)cc1)C(=O)O)c1c(Cl)cccc1Cl", "note": "[Example 76, N-(2,6-dichlorobenzoyl)-O-[(3S)-1-(2,5-difluorobenzyl)piperidin-3-yl]-L-tyrosine]", "values": [{"measurement": "IC50", "setting": "[1]", "result": 4.1, "unit": "µM"}, {"measurement": "IC50", "setting": "[2]", "result": 11.4, "unit": "µM"}]}
{"compound": "N#Cc1cccc(CN2CCC(Oc3ccc(C[C@H](NC(=O)c4c(Cl)cccc4Cl)C(=O)O)cc3)CC2)c1", "note": "[Example 83, O-[1-(3-cyanobenzyl)piperidin-4-yl]-N-(2,6-dichlorobenzoyl)-L-tyrosine]", "values": [{"measurement": "IC50", "setting": "[1]", "result": 1.7, "unit": "µM"}, {"measurement": "IC50", "setting": "[2]", "result": 6.6, "unit": "µM"}]}
{"compound": "N-(2,6-Dichlorobenzoyl)-O-[(3R)-pyrrolidin-3-yl]-L-tyrosine [Example 17]", "values": [{"measurement": "IC50", "setting": "[1]", "result": 1.2, "unit": "µM"}, {"measurement": "IC50", "setting": "[2]", "result": 9.3, "unit": "µM"}]}
